Holding throughout (assay type): cell-based, human
The test system of experiment [1] is H1 cell line. Nature of the experiment: C-Peptide+/NKX6-1+ beta-like cells by flow cytometry at day 23. Conditions: treatment day 8 to day 13: WIKI4 9 uM, G007-LK 5 uM, JW74 10 uM, JW55 5 uM. The source says: Flow cytometry analysis for C-Peptide (a surrogate for insulin) and NKX6.1 performed at day 23 of differentiation, showing high percentage of C-peptide+/NKX6-1+ cells (beta-like cells). Numbers in each quadrant indicate the relevant percentage of the total population. Results shown are from H1 cell line.
FIG. 7 show specific tankyrase inhibitors generate high percentages of beta-like cells as measured by C-peptide/NKX6-1 double positive cells using H1 cell line. […] Results shown are from H1 cell line. Error bars represent SEM. n=4 for all, n=1 for JW74.
For orientation: In flow cytometry, cells or beads pass a laser one at a time.

Experiment [2] deals with INS^GFP/W reporter line. Nature of the experiment: INSULIN:GFP+ cells by fluorescence imaging and flow cytometric analysis after further differentiation. Conditions: NE + IWR-1-endo 3 uM or WIKI4 9 uM day 8 to day 13; read day 21/23; compared with XAV939 1.5 uM and MN64 3 uM. The protocol: Cells treated with various tankyrase pathway inhibitors (Cell treated with NE alone or NE in combination with tankyras inhibitors (NE+XAV939 1.5 uM, NE+IWR-1-endo 3 uM, NE+MN64 3 uM, NE+WIKI4 9 uM)) between day 8 and day 13 of differentiation were differentiated for an additional 10 days using a modified version of the differentiation protocol developed by Rezania and Pagliuca (Rezania et al 2014, Pagliuca 2014). Representative bright field and fluorescent images of cellular aggregates are shown at day 23 of differentiation. Results shown are from INS^GFP/W reporter line.
Quantification of the percentage of INSULIN:GFP+ cells measured by flow cytometric analysis at day 23 of differentiation, arising from cells treated or untreated with different compounds: XAV939, IWR-1, MN64, WIKI4. Cells were treated using NE (−) or NE in combination with different compounds: XAV939 1.5 uM, IWR-1 3 uM, MN64 3 uM, WIKI4 9 uM. Results shown are from INS^GFP/W reporter line, Error bars represent standard deviation. n=4.
In this report we present a new method to generate PDX1+/NKX6.1+ endoderm from a variety of hPSC lines. […] (See FIGS. 1-5).

The test system of experiment [3] is INS^GFP/W reporter line. Put plainly: Insulin transcript by QPCR normalized to TBP. Conditions: day 23; WIKI4 9 uM compared to IWR-1 3 uM, MN64 3 uM, XAV939 1.5 uM. The protocol:
Cells treated with different tankyrase inhibitors express different amounts of insulin transcript, as measured by QPCR. Shown is the relative expression of insulin transcript normalized to the housekeeping gene TBP (TATA Binding Protein) at day 23 of differentiation, where pancreatic progenitor cells were generated by treating cells with or without XAV939, IWR-1, MN64, WIKI4 (XAV939 1.5 uM, IWR-1 3 uM, MN64 3 uM, WIKI4 9 uM). Adult pancreas is used as positive control. Results shown are from INS^GFP/W reporter line. Error bars represent standard deviation. n=3.

Entries after “also recorded” stand apart in the source; their conditions may differ.

For `CS(=O)(=O)c1ccc(-c2nnc(/C=C/c3nnc(-c4ccc(C#N)cc4)o3)n2-c2ccccc2Cl)nc1` [G007-LK], the “percentage of C-Peptide+/NKX6-1+ beta-like cells” value in experiment [1] is given as “able to generate a population of C-peptide+/NKX6.1+ insulin-expressing beta-like cells”. Turning to `O=C(Nc1cccc2cccnc12)c1ccc(N2C(=O)[C@@H]3[C@H](C2=O)[C@@H]2C=C[C@H]3C2)cc1` [IWR-1], in experiment [2], the “percentage of INSULIN:GFP+ cells” value is given as “higher percentages of INSGFP+ cells; also recorded: higher percentages of Insulin:GFP+ cells”. Consider `COc1ccc(C2(CNC(=O)c3ccc(NC(=O)c4ccco4)cc3)CCOCC2)cc1` [JW55], for which the “percentage of C-Peptide+/NKX6-1+ beta-like cells” value in experiment [1] is given as “able to generate a population of C-peptide+/NKX6.1+ insulin-expressing beta-like cells”. In the case of `COc1ccc(-n2c(SCc3nc(-c4ccc(C)cc4)no3)nnc2-c2ccncc2)cc1` [JW74], in experiment [1], the “percentage of C-Peptide+/NKX6-1+ beta-like cells” value is on record as “able to generate a population of C-peptide+/NKX6.1+ insulin-expressing beta-like cells”.

Take `COc1ccc(-n2c(SCCCN3C(=O)c4cccc5cccc(c45)C3=O)nnc2-c2ccncc2)cc1` [WIKI4]: the “percentage of INSULIN:GFP+ cells” value in experiment [2] is on record as “higher percentages of INSGFP+ cells; also recorded: higher percentages of Insulin:GFP+ cells”. The “relative expression of insulin transcript (INS mRNA) normalized to TBP” value in experiment [3] is given as “higher levels of INS mRNA”. Moreover, the “percentage of C-Peptide+/NKX6-1+ beta-like cells” value in experiment [1] is listed as “high percentages of C-Peptide+/NKX6-1+ insulin expressing beta-like cells; also recorded: able to generate a population of C-peptide+/NKX6.1+ insulin-expressing beta-like cells”.

For the origin of these results see patent US20210198633A1, “METHODS AND COMPOSITIONS COMPRISING TANKYRASE INHIBITORS FOR GENERATING INSULIN PRODUCING CELLS” (UNIVERSITY HEALTH NETWORK, priority 2018, published 2021).
